Data on ten compounds can be found in PubChem BioAssay (NCI).

Among the test systems are CCRF-CEM leukemia; HL-60(TB) leukemia; HOP-92 NSCLC; MOLT-4 leukemia; NCI-H226 lung; NCI-H522 lung; SK-MEL-2 melanoma; SK-MEL-28 melanoma; SK-OV-3 ovarian; LOX IMVI melanoma.
Assay in all cases: inhibition of tumour cell growth, NCI panel, 48 h

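1) Cells in 96-well plates. 2) Compound, 48 h, 5 concentrations. 3) Linear interpolation between surrounding doses. 4) Unreached endpoint = highest concentration. The concentration for 50% growth inhibition is given as GI50. TGI is the concentration that stops growth completely.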 Some results are limits rather than exact numbers.

For `COc1cc(/C=C/C(=O)/C=C/c2ccc(-n3ccnc3C)cc2)ccc1O`, the GI50 is 4.07 µM in the test on CCRF-CEM leukemia; 3.26 µM with HL-60(TB) leukemia; 10.1 µM in the test with HOP-92 NSCLC; 4.05 µM in the test with MOLT-4 leukemia; 2.37 µM with NCI-H226 lung; 5.26 µM in the test with NCI-H522 lung. Moreover, the results for the GI50 in the test on SK-MEL-2 melanoma, in the test with SK-MEL-28 melanoma and with SK-OV-3 ovarian were 26 µM, 2.18 µM and 8.14 µM, respectively. Besides, the TGI with CCRF-CEM leukemia was greater than 100 µM; with HL-60(TB) leukemia it was 32.5 µM; in the test on HOP-92 NSCLC, 45.6 µM; with MOLT-4 leukemia, greater than 100 µM; in the test with NCI-H226 lung, 6.4 µM; in the test with NCI-H522 lung it was 24.9 µM. The TGI is 84.2 µM in the test on SK-MEL-2 melanoma, 5 µM with SK-MEL-28 melanoma and greater than 100 µM with SK-OV-3 ovarian.

In the case of `O=C(Nc1ccccc1)Nc1ccc2cc3ccc(NC(=O)Nc4ccccc4)cc3nc2c1`, the GI50 with CCRF-CEM leukemia was 0.276 µM; in the test with HOP-92 NSCLC, 1.58 µM; in the test on LOX IMVI melanoma, 0.467 µM; with MOLT-4 leukemia it was 0.559 µM; in the test on NCI-H226 lung, 1.71 µM; with NCI-H522 lung, 1.6 µM. Further, the GI50 with SK-MEL-2 melanoma is 1.72 µM; with SK-MEL-28 melanoma, 1.82 µM; in the test on SK-OV-3 ovarian, 2.13 µM. The TGI with CCRF-CEM leukemia turned out to be 0.828 µM; in the test on HOP-92 NSCLC it was 3.2 µM; in the test with LOX IMVI melanoma it was 1.67 µM; in the test on MOLT-4 leukemia, 2.13 µM; in the test with NCI-H226 lung, 4.15 µM; in the test on NCI-H522 lung, 3.35 µM. Moreover, the TGI in the test on SK-MEL-2 melanoma came out at 3.24 µM; in the test on SK-MEL-28 melanoma, 3.22 µM; in the test with SK-OV-3 ovarian, 4.5 µM.

As to `ClC/C=C/COC1CCCCO1` (stereo not drawn), the TGI in the test with CCRF-CEM leukemia was greater than 100 µM; in the test on HL-60(TB) leukemia it was 51.4 µM; in the test on HOP-92 NSCLC, greater than 100 µM; in the test with MOLT-4 leukemia, 97 µM; in the test with NCI-H226 lung, greater than 100 µM; in the test on NCI-H522 lung it was 8.85 µM. Besides, the TGI in the test with SK-MEL-2 melanoma and in the test with SK-OV-3 ovarian was greater than 100 µM each time.

On to `COC(=O)c1ccc(CN2C(=O)C(Cl)=C(Nc3cccc(Cl)c3C)C2=O)cc1`, for which the GI50 in the test with CCRF-CEM leukemia is 3.32 µM; with HOP-92 NSCLC, 17 µM; with LOX IMVI melanoma, 32.3 µM; in the test with MOLT-4 leukemia, 5.14 µM; in the test on NCI-H226 lung, 11 µM; with NCI-H522 lung, 3.51 µM. The figures for the GI50 with SK-MEL-2 melanoma, in the test with SK-MEL-28 melanoma and in the test with SK-OV-3 ovarian were 3.48 µM, 15.2 µM and greater than 100 µM, respectively. Further, the TGI was greater than 100 µM with CCRF-CEM leukemia; greater than 100 µM in the test with HOP-92 NSCLC; greater than 100 µM in the test with LOX IMVI melanoma; greater than 100 µM in the test with MOLT-4 leukemia; greater than 100 µM with NCI-H226 lung; 20.8 µM in the test with NCI-H522 lung. The TGI in the test with SK-MEL-2 melanoma was 21.9 µM; in the test with SK-MEL-28 melanoma, greater than 100 µM; in the test with SK-OV-3 ovarian it was greater than 100 µM.

Turning to `NC(=O)c1cc([N+](=O)[O-])c(Cl)c([N+](=O)[O-])c1Cl`, the GI50 was 0.4 µM with CCRF-CEM leukemia; 1.84 µM with HOP-92 NSCLC; 0.33 µM in the test with LOX IMVI melanoma; 1.79 µM in the test on NCI-H226 lung; 0.162 µM in the test on NCI-H522 lung; 1.71 µM with SK-MEL-2 melanoma. In addition, the GI50 in the test with SK-MEL-28 melanoma was 1.74 µM; in the test on SK-OV-3 ovarian it was 4.21 µM. Moreover, the TGI was 2.38 µM in the test on CCRF-CEM leukemia; 3.45 µM in the test with HOP-92 NSCLC; 1.16 µM in the test on LOX IMVI melanoma; 3.36 µM in the test with NCI-H226 lung; 0.319 µM in the test with NCI-H522 lung; 3.16 µM in the test on SK-MEL-2 melanoma. The TGI amounted to 3.15 µM in the test on SK-MEL-28 melanoma and 14.5 µM in the test on SK-OV-3 ovarian.

`Cc1cccc(C)c1NC(=O)C1=NC(=S)NC(c2ccccc2)C1c1nc2ccccc2s1` (stereo not drawn): the TGI with CCRF-CEM leukemia, with HL-60(TB) leukemia, in the test with HOP-92 NSCLC, with MOLT-4 leukemia, with NCI-H226 lung and with NCI-H522 lung was greater than 100 µM in each case. The TGI in the test with SK-MEL-2 melanoma, with SK-MEL-28 melanoma and in the test on SK-OV-3 ovarian was greater than 100 µM throughout.

With `COc1ccc2c(c1)c(-c1nc(-c3c[nH]c4ccncc34)cs1)cn2C`, the GI50 with CCRF-CEM leukemia was 1.83 µM; with HL-60(TB) leukemia, 1.68 µM; with HOP-92 NSCLC, 1.64 µM; in the test with NCI-H226 lung, 1.88 µM; in the test on NCI-H522 lung it was 1.65 µM; in the test with SK-MEL-2 melanoma, 1.84 µM. Besides, the GI50 with SK-MEL-28 melanoma is 1.63 µM; in the test with SK-OV-3 ovarian, 1.88 µM. The TGI with CCRF-CEM leukemia came out at 3.64 µM; in the test with HL-60(TB) leukemia, 3.5 µM; in the test with HOP-92 NSCLC, 3.33 µM; in the test with NCI-H226 lung it was 3.9 µM; with NCI-H522 lung, 3.25 µM; in the test with SK-MEL-2 melanoma it was 3.4 µM. Further, the figures for the TGI in the test on SK-MEL-28 melanoma and in the test on SK-OV-3 ovarian were 3.04 µM and 3.37 µM, respectively.

For the compound `COC12C=C/C(=C(/C(=O)OCc3ccccn3)C(=O)CCCCCCCCC3(OC)C=C/C(=C(/C(=O)OCc4ccccn4)C(=O)CCCCCCCC1)O3)O2`, the GI50 is 0.306 µM with HL-60(TB) leukemia; 1.65 µM with HOP-92 NSCLC; 0.188 µM in the test on LOX IMVI melanoma; 0.301 µM in the test on MOLT-4 leukemia; 0.25 µM with NCI-H226 lung; 0.345 µM with NCI-H522 lung. Moreover, the figures for the GI50 with SK-MEL-2 melanoma, in the test with SK-MEL-28 melanoma and in the test with SK-OV-3 ovarian were 1.18 µM, 0.481 µM and 0.889 µM, respectively. The TGI was 2.17 µM in the test on HL-60(TB) leukemia; 3.54 µM in the test with HOP-92 NSCLC; 0.417 µM with LOX IMVI melanoma; greater than 100 µM with MOLT-4 leukemia; 0.648 µM in the test with NCI-H226 lung; 1.71 µM in the test on NCI-H522 lung. Moreover, the figures for the TGI with SK-MEL-2 melanoma, in the test on SK-MEL-28 melanoma and in the test on SK-OV-3 ovarian were 3.85 µM, 3.62 µM and 60.9 µM, respectively.

For the compound `CC(=O)Nc1c(Nc2ccccc2)[nH]c(C)nc1=S`, the TGI with CCRF-CEM leukemia, in the test on HL-60(TB) leukemia, in the test on HOP-92 NSCLC, in the test with LOX IMVI melanoma, in the test with MOLT-4 leukemia and in the test on NCI-H522 lung was greater than 100 µM throughout. The TGI with SK-MEL-2 melanoma, with SK-MEL-28 melanoma and with SK-OV-3 ovarian was greater than 100 µM each time.

With `c1ccc2c3c([nH]c2c1)[C@H]1C2CCCCN2CN1CC3` (stereo partly drawn), the TGI in the test with CCRF-CEM leukemia, with HL-60(TB) leukemia, with HOP-92 NSCLC, in the test on MOLT-4 leukemia, in the test on NCI-H522 lung and in the test with SK-MEL-2 melanoma was greater than 100 µM throughout. The TGI in the test with SK-MEL-28 melanoma and in the test with SK-OV-3 ovarian was greater than 100 µM throughout.
